Active and inactive are the calls of the source.
Key:
[1] = cells; type: functional, cell-based
[2] = biological target: T1, Trace amine-associated receptor 1 (Homo sapiens, UniProt Q96RJ0); test: Fluorescence-based cell-based high throughput dose response assay to identify agonists of the human trace amine associated receptor 1 (TAAR1).; type: functional
T1 sequence (Q96RJ0 whole entry): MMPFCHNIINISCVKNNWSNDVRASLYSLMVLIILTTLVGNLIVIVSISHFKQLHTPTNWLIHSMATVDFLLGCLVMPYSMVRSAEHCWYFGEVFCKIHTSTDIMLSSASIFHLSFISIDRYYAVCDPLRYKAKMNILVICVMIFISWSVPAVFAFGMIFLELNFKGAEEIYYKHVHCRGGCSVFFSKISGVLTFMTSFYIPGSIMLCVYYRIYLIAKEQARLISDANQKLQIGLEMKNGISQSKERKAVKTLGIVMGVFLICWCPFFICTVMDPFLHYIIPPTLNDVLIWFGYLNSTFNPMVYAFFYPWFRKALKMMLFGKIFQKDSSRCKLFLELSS

[3] = biological target: T1, Trace amine-associated receptor 1; test: Counterscreen for agonists of the human trace amine associated receptor 1 (hTAAR1): Fluorescence-based cell-based high throughput dose response assay to identify hTAAR1 agonist that also desensitize TAAR1 receptor response.; type: functional
[4] = cells; type: functional, cell-based; remark: listed apart in the source
[5] = reduction of Shn3 3'UTR-driven luciferase in osteoblasts – cell-based, Clone20 osteoblasts, firefly luciferase, cherry-picked, dose response (AID 624132); type: functional;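 further: firefly luciferase luminescence from reporter carrying the Shn3 3'UTR in osteoblasts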
[6] = loss of viability in HepG2 cells – cell-based, CellTiter-Glo, cherry-picked, cytotoxicity control for Shn3 inhibitor project, dose response (AID 624134); type: functional
[7] = non-specific 3'UTR reporter inhibition in Clone20-Shn3RL – cell-based, Renilla luciferase, cherry-picked, counter-screen for Shn3 inhibitor project, dose response (AID 624133); type: functional
[8] = Fluorescence-based cell-based high throughput dose response assay for inhibitors of the interaction of nucleotide-binding oligomerization domain containing 2 (NOD2) and the receptor-interacting serine-threonine kinase 2 (RIPK2).; type: functional; conditions: Homo sapiens
[9] = biological target: Beta Lactamase (Pseudomonas aeruginosa, UniProt Q932Y6); test: BLA reporter interference, concentration series – BLA reporter cells, FRET fluorescence, artefact control for NOD2-RIPK2 interaction inhibitor project, dose response (AID 651552); type: functional, cell-based
[10] = biological target: Major prion protein (Homo sapiens, UniProt P04156); type: functional, cell-based
[11] = cells
[12] = biological target: Fructose-bisphosphate aldolase (Mycobacterium tuberculosis, UniProt P9WQA3); test: Fluorescence-based biochemical high throughput dose response assay for inhibitors of the fructose-bisphosphate aldolase (FBA) of M. tuberculosis.; type: functional
[13] = biological target: Nuclear receptor subfamily 5 group A member 2 (Homo sapiens, UniProt O00482); type: functional, cell-based;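 further: HEK293T cells transfected with LRH-1 and a StAR promoter luciferase reporter; potency for inhibitors that lower LRH-1 driven reporter light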
[14] = biological target: Steroidogenic factor 1 (Homo sapiens, UniProt Q13285); test: Counterscreen for inverse agonists of the liver receptor homolog-1 (LRH-1; NR5A2): Luminescence-based cell-based high throughput dose response assay to identify inverse agonists of the Steroidogenic Factor 1 Nuclear Receptor (SF1; NR5A1).; type: functional
[15] = nonselective StAR promoter luciferase inhibitors – cell-based, luminescence, luciferase reporter, counter-screen for LRH-1 inverse agonist project, dose response (AID 651969); type: functional
[16] = intracellular Trypanosoma cruzi inhibitors in host cells – cell-based, plate reader, cherry-pick samples, set 3, dose response (AID 651818); type: functional;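 further: compounds incubated with infected cells for about four days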
[17] = potency of ADAM10 substrate cleavage blockers – biochemical, QFRET, dose response (AID 743254);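 further: ADAM10 enzyme with the DM2 quenched FRET peptide as substrate; EDANS fluorescence gain as the protease cuts the substrate; inhibitor potency against ADAM10 proteolytic activity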
[18] = biological target: Disintegrin and metalloproteinase domain-containing protein 17 (Homo sapiens, UniProt P78536); test: inhibition of ADAM17 substrate cleavage – biochemical, quenched FRET substrate, counter-screen for ADAM10 exosite inhibitor project, dose response (AID 743253)
[19] = activation of miR-122 Renilla sensor silencing – cell-based, Huh7 psiCHECK-miR122, Renilla luciferase, cherry-picked, dose response (AID 651956); type: functional;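 further: huh7 hepatoma cells stably carrying a psiCHECK-2 miR-122 sensor plasmid; renilla luciferase signal reporting endogenous miR-122 activity after 48 h compound exposure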
[20] = biological target: Paired box protein Pax-8 (Homo sapiens, UniProt Q06710); test: PAX8 transcriptional activity inhibition in RMG-I – RMG-I cells, luciferase, cherry-pick, dose response (AID 687027); type: functional, cell-based;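 further: luciferase reporter driven by Pax8 target thyroperoxidase promoter measured by SteadyGlo luminescence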
[21] = general cell-killing toxicity readout – plate reader, dry powder samples, cytotoxicity control for PAX8 inhibitor project, dose response (AID 743021); type: functional, cell-based
[22] = A2780 cell killing – plate reader, dry powder samples, cytotoxicity control, dose response (AID 743046); type: functional, cell-based
[23] = OVCAR-3 cell viability loss – plate reader, dry powder samples, PAX8 inhibitor project, dose response (AID 743044); type: functional, cell-based
[24] = biological target: T2, Insulin-degrading enzyme (Homo sapiens, UniProt P14735); test: recombinant IDE activation, cell-free – biochemical, fluorescence polarization, counter-screen for IDE activator project, dose response (AID 588681)
T2 sequence (P14735 whole entry): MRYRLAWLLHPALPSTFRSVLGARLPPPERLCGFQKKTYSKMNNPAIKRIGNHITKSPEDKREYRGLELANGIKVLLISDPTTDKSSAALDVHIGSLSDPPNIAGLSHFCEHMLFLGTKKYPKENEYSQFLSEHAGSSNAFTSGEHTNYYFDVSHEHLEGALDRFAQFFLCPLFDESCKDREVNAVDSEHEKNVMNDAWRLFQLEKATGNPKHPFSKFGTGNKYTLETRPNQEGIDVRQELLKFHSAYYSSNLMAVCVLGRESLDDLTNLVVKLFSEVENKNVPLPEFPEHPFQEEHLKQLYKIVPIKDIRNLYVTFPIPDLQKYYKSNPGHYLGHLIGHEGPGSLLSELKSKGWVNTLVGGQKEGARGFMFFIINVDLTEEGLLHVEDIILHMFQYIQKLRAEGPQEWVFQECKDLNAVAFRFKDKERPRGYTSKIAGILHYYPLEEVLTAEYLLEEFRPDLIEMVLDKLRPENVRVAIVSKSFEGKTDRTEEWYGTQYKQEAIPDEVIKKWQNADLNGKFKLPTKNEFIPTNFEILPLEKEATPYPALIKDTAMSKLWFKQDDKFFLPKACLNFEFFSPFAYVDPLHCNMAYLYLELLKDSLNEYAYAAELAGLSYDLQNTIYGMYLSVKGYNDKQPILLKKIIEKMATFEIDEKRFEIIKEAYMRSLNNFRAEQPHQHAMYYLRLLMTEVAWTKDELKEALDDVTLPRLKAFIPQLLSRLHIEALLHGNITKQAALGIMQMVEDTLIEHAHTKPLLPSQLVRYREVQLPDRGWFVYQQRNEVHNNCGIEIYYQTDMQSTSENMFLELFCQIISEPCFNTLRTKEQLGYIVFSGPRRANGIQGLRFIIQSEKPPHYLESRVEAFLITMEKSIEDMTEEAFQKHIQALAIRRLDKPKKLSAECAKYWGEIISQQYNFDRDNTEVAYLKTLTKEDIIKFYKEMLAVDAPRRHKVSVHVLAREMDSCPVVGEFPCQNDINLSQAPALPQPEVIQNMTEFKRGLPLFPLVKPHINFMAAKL

[25] = biological target: T2, Insulin-degrading enzyme; test: cellular IDE activation of Abeta substrate cleavage – fluorescence polarization, HEK cells, dose response (AID 588439); type: functional, cell-based
[26] = test system: HEK293; test: membrane integrity loss in HEK cells – cell-based, fluorescence, cytotoxicity control for IDE activator project, dose response (AID 588440); type: functional; conditions: Homo sapiens;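 further: cytotoxicity by LDH release measuring loss of membrane integrity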
[27] = test system: HEK293; test: optical interference in Abeta FP readout, dose response, artefact control for IDE activator project, biochemical, fluorescence polarization (AID 588442); type: functional, cell-based; conditions: Homo sapiens

O=C(CSC1=NS(=O)(=O)c2ccccc2N1)NCCc1ccccc1
IC50 [1]: > 29.9 µM (inactive) | EC50 [2]: 3.33 µM (active) | IC50 [3]: 6.94 µM (active) | EC50 [4]: > 29.9 µM (inactive)

C=C1C(=O)[C@]23C[C@H]1CCC2[C@@]1(C)C(C[C@@H]3O)[C@](C)(C(=O)OC)CC[C@@H]1OC(C)=O (some centres undefined)
AC50 [5]: 2.14 µM (active) | AC50 [6]: 7.22 µM (active) | AC50 [7]: 3.51 µM (active) | IC50 [8]: 917 nM (active) | IC50 [9]: 18 µM (inactive)

CNc1ncc(C(=O)c2ccc(Cl)cc2)s1
IC50 [10]: 6.92 µM (active) | IC50 [11]: > 138 µM (inactive)

CCOC(=O)c1cnc2ccc(C)cn2c1=O
IC50 [12]: 1.23 µM (active)

COc1ccc(NC(=O)COC(=O)Cc2c[nH]c3ccccc23)cc1Cl
IC50 [13]: 25.4 µM (inactive) | IC50 [14]: 17.6 µM (inactive) | IC50 [15]: 35.9 µM (inactive)

C[C@@H]1CCCCO[C@H](CN(C)S(=O)(=O)c2ccc(F)cc2)[C@@H](C)CN([C@H](C)CO)C(=O)c2cc(NC(=O)Nc3ccc(C(F)(F)F)cc3)ccc2O1
AC50 [16]: 3.61 µM (active) | IC50 [17]: > 69.5 µM (inactive) | IC50 [18]: > 69.5 µM (inactive)

CO[C@H]1CN(C)C(=O)c2ccc(NC(C)=O)cc2OC[C@@H](C)N(C(=O)CC2CC2)C[C@H]1C
AC50 [19]: 49.6 µM (active)

C=C1C(=O)[C@]23C[C@H]1CCC2[C@@]1(C)C(C[C@@H]3O)[C@](C)(C(=O)OC)CC[C@@H]1O (some centres undefined)
AC50 [5]: 2.58 µM (active) | AC50 [6]: 15.8 µM (active) | AC50 [7]: 7.06 µM (active) | IC50 [8]: 2300 nM (active) | IC50 [9]: 24.2 µM (inactive) | AC50 [20]: 1.71 µM (active) | AC50 [21]: 38.2 µM (active)

CO[C@@H]1CN(C)C(=O)c2cc(NC(=O)c3ccc(-c4ccccc4)cc3)ccc2OC[C@H](C)NC[C@H]1C
AC50 [20]: 25.3 µM (active) | AC50 [22]: 37.2 µM (active) | AC50 [23]: 42.2 µM (active) | AC50 [21]: 40.4 µM (active)

Cc1nc2ccccc2c(=O)n1-c1ccc(C(=O)O)cc1
EC50 [24]: > 54.7 µM (inactive) | EC50 [25]: > 54.7 µM (inactive) | IC50 [26]: > 89.2 µM (inactive) | EC50 [27]: > 55.9 µM (inactive)

Source: ChEMBL document CHEMBL1201862, “PubChem BioAssay data set” (2004)
